Experimental data reported in PMC4159296, “Antibodies to the Extracellular Pore Loop of TRPM8 Act as Antagonists of Channel Activation” (PLoS ONE, 2014).
Entries after “also recorded” stand apart in the source; their conditions may differ. Read-outs that look alike come from different tables or passages of the source.

Experiments:
Format in all cases: cell-based
human TRPM8 = molecular target: T1, human TRPM8 (Homo sapiens, UniProt Q7Z2W7); assay: agonist-induced 45Ca2+ uptake assay, CHO cells expressing human TRPM8; conditions: for IC50: CHO cells, mean ± SD; for block of icilin-induced 45Ca2+ uptake, human TRPM8 in CHO cells: single concentration/volume, 30 µl antibody solution, stock concentrations not provided, Fig. 6A
T1 construct: expressed in transfected cells; host or cells: T-REx-CHO (Chinese hamster ovary), tetracycline-induced
Procedure: (§1) Complementary DNAs of recombinant human, rat and mouse TRPM8 were stably transfected into Tetracycline-Regulated Expression cell line, T-REx-Chinese hamster ovary cell line from Invitrogen, Inc. (Carlsbad, CA). Twenty four hours before the assay, cells were seeded in Cytostar-T 96-well plates at a density of 3.0×10^4 per well, and TRPM8 channel expression was induced with 0.5 µg/ml tetracycline. On the day of the assay, culture media were removed, and cells were incubated with TRPM8 antibody (ACC-049), antagonist M8-B, or control IgG for 30 min before addition of ^45Ca^2+. Stock solutions of ACC-049, M8-B, and control IgG were diluted to the desired final concentrations in the assay buffer (F-12 Ham's containing 15 mM HEPES and 0.1 mg/ml BSA) keeping the final concentration of DMSO lower than 0.5% for M8-B. The activity of TRPM8 was monitored as function of cellular uptake of radioactive calcium. The final concentration of ^45Ca^2+in the ^45Ca^2+ uptake assay was 10 µCi/ml. […] For cold activation of TRPM8, cold assay buffer at 10°C was used. ACC-049 was assayed in cells stably expressing human, rat, or mouse TRPM8 channels. The other commercial antibodies listed in Table 1 were assayed at a single concentration in 30 µl in icilin induced activation of human TRPM8 channels. The TRPM8 antagonist M8-B was used as a positive control and control IgG was used as a negative control in all assays. TRPM8 activation was calculated as percent of control (POC) with agonist (cold, icilin or menthol) induced radioactive calcium uptake set as 100 percent and assay buffer only plus ^45Ca^2+ set as zero percent with exception of cold activation, where blockade with M8-B at 1 µM was set as zero percent. Evaluation of antagonism at heat activation of TRPV1 [26], and noxious cold temperature activation of TRPA1 [24] was conducted as reported previously.
(§2) GraphPad Prism 5.0 (GraphPad Software, Inc., San Diego, CA) software was used to plot the data and to calculate the 50% inhibitory concentrations (IC50) of compounds and antibodies using a sigmoidal dose-response equation.

mouse TRPM8 = molecular target: T2, mouse TRPM8 (Mus musculus, UniProt Q8R4D5); assay: agonist-induced 45Ca2+ uptake assay, CHO cells expressing mouse TRPM8; conditions: mean ± SD
T2 construct: expressed in transfected cells; host or cells: T-REx-CHO (Chinese hamster ovary), tetracycline-induced
Procedure: as §1, §2

[1] = molecular target: T3, endogenous TRPM8 expressed in rat dorsal root ganglion neurons (Rattus norvegicus, UniProt Q8R455); assay: icilin-induced 45Ca2+ uptake assay in freshly isolated rat DRG neurons; conditions: 1 µM icilin; same single concentration/volume of antibodies; Fig. 6B
T3 construct: endogenous in cells; host or cells: primary dorsal root ganglion neurons from male Sprague Dawley rats

rat TRPM8 = molecular target: T4, rat TRPM8 (Rattus norvegicus, UniProt Q8R455); assay: agonist-induced 45Ca2+ uptake assay, CHO cells expressing rat TRPM8; conditions: mean ± SD
T4 construct: expressed in transfected cells; host or cells: T-REx-CHO (Chinese hamster ovary), tetracycline-induced
Procedure: as §1, §2

human TRPA1 = human TRPA1 (Homo sapiens, UniProt O75762); assay: noxious cold temperature activation of human TRPA1, 45Ca2+ uptake; conditions: ACC-049 and control IgG 2.5 µM; peptide 10 µM; Fig. 2
Procedure: as §1, with “ACC-049 was assayed in cells stably expressing human, rat, or mouse TRPM8 channels. The other commercial antibodies listed in Table 1 were assayed at a single concentration in 30 µl in icilin induced activation of human TRPM8 channels. The TRPM8 antagonist M8-B was used as a positive control and control IgG was used as a negative control in all assays.” left out, “Evaluation of antagonism at heat activation of TRPV1 [26], and noxious cold temperature activation of TRPA1 [24] was conducted as reported previously.” left out

human TRPV1 = human TRPV1 (Homo sapiens, UniProt Q8NER1); assay: heat activation of human TRPV1, 45Ca2+ uptake; conditions: ACC-049 and control IgG 2.5 µM; peptide 10 µM; Fig. 2
Procedure: as §1, with “ACC-049 was assayed in cells stably expressing human, rat, or mouse TRPM8 channels. The other commercial antibodies listed in Table 1 were assayed at a single concentration in 30 µl in icilin induced activation of human TRPM8 channels. The TRPM8 antagonist M8-B was used as a positive control and control IgG was used as a negative control in all assays.” left out, “Evaluation of antagonism at heat activation of TRPV1 [26], and noxious cold temperature activation of TRPA1 [24] was conducted as reported previously.” left out

T2 sequence (Q8R4D5 whole entry): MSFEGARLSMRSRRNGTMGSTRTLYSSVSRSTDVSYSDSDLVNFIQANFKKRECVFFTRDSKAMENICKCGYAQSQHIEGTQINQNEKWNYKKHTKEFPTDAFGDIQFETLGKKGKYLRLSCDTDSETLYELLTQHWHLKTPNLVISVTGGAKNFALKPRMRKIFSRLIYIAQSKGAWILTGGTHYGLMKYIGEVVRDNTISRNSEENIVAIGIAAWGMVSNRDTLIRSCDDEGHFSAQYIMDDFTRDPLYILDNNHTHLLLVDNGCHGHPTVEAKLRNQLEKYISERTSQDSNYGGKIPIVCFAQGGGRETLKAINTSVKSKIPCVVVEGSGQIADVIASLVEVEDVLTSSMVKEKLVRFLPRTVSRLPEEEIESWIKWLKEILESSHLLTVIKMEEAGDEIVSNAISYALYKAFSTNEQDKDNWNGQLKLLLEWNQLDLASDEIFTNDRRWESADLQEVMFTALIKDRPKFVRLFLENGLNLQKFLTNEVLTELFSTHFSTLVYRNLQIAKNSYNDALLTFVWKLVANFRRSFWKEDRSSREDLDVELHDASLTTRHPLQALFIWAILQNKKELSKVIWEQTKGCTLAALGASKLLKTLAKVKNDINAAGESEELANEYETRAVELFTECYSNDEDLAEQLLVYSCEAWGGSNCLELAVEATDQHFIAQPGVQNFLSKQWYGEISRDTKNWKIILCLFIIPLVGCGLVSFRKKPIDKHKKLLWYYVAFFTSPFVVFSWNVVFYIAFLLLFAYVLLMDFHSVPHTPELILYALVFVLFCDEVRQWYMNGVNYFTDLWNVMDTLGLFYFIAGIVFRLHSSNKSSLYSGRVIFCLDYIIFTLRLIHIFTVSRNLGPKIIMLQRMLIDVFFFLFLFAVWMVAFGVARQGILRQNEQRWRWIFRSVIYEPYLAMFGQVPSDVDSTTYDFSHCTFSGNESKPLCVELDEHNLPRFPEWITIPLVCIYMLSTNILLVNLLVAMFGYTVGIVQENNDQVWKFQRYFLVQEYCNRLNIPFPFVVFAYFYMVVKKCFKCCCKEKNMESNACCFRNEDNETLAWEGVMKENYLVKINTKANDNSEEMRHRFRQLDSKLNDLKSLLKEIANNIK
T4 sequence (Q8R455 whole entry): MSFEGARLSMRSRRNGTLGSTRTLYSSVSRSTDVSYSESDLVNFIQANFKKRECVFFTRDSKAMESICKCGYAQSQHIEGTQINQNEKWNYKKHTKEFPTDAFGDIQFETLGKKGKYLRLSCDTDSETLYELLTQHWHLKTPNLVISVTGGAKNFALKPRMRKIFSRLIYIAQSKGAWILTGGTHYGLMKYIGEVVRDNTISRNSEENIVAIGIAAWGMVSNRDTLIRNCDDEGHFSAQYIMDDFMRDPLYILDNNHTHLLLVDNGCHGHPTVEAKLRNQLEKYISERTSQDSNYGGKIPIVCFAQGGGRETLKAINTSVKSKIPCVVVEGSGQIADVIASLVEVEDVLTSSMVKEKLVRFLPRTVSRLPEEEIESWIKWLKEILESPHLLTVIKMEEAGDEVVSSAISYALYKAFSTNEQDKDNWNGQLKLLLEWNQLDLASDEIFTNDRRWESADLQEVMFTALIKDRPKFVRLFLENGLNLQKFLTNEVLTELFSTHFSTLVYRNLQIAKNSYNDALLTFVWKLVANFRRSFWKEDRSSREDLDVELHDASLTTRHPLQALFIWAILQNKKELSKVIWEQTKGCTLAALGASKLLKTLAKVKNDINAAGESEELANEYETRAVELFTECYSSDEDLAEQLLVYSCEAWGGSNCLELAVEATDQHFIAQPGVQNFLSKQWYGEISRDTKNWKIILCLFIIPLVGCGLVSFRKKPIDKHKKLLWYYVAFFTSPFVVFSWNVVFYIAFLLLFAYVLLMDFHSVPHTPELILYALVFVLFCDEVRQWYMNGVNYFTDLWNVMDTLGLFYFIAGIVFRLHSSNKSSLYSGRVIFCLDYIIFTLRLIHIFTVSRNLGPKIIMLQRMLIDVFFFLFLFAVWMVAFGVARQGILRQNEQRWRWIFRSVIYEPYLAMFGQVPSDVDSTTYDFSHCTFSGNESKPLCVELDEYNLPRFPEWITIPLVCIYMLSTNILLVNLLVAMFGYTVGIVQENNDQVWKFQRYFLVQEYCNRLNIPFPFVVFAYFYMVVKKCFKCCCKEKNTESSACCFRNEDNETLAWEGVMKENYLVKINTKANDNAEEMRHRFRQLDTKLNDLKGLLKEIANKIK
T1 sequence (Q7Z2W7 whole entry): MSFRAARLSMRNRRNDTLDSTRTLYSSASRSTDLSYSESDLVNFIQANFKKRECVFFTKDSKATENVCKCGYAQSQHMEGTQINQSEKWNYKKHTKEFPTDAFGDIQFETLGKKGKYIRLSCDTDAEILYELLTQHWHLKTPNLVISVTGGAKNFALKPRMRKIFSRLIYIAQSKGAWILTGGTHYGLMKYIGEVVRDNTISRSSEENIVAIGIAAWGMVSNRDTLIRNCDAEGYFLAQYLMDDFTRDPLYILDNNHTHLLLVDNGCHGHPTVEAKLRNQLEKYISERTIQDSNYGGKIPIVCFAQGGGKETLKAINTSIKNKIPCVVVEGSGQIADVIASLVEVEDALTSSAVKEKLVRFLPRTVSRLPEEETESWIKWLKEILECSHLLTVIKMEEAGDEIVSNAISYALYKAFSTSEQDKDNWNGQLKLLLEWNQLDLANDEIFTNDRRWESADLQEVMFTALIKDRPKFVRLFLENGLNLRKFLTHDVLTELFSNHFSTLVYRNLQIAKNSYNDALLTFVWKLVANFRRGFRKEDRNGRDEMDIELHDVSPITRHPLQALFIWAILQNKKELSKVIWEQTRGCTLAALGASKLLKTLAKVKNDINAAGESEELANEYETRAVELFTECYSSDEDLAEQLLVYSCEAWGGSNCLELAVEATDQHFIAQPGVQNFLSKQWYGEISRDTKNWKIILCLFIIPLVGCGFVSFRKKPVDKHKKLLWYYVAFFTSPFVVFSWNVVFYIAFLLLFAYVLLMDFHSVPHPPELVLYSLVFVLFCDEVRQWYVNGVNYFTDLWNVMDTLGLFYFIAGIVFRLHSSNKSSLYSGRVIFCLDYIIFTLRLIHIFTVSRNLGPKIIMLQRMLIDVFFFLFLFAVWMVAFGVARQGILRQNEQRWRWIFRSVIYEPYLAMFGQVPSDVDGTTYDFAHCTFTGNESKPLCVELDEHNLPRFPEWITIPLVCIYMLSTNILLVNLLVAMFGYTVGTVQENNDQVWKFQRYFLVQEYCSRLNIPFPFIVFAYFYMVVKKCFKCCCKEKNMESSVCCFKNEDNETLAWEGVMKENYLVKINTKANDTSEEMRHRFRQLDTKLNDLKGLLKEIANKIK
T3 sequence (Q8R455 whole entry): as the sequence (Q8R455 whole entry) above
human TRPV1, sequence (Q8NER1 whole entry): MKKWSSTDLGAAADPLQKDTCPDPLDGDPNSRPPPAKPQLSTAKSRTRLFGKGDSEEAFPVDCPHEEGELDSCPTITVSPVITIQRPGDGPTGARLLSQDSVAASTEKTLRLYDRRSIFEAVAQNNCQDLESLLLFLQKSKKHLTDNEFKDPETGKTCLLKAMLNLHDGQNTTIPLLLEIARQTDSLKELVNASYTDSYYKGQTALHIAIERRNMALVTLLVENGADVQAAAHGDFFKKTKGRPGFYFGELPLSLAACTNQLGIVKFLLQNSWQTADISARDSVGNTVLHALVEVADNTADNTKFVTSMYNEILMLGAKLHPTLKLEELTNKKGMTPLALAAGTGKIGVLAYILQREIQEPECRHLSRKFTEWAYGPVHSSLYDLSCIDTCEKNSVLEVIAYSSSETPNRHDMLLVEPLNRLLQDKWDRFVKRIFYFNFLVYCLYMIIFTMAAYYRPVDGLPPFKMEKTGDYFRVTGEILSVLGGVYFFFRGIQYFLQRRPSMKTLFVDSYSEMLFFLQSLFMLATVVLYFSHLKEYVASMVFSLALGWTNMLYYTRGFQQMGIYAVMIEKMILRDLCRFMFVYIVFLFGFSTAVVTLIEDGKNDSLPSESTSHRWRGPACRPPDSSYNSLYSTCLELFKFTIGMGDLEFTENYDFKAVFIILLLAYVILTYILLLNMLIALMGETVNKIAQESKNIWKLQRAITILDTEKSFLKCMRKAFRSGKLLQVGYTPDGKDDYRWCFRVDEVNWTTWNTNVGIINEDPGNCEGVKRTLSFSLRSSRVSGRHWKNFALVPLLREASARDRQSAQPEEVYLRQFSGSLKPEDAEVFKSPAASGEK

In the case of `COc1cc(CN(CCN)C(=O)c2cccs2)ccc1OCc1ccccc1` [M8-B], the IC50 (human TRPM8; 1 µM icilin, triplicate wells, read-out: IC50, icilin induced human TRPM8 channel activation) is reported as 11 ± 1.2 nM, the “block of icilin-induced 45Ca2+ uptake, human TRPM8 in CHO cells” value (human TRPM8; 1 µM icilin) is reported as “fully; also recorded: completely blocked” and the IC50 (human TRPM8; 100 µM menthol, triplicate wells, read-out: IC50, menthol induced human TRPM8 channel activation) is reported as 1 ± 1.4 nM. For the same compound, the IC50 (human TRPM8; cold 10°C, one experiment in triplicate wells, read-out: IC50, cold induced human TRPM8 channel activation) was 3 ± 1.1 nM, the IC50 (mouse TRPM8; 1 µM icilin, triplicate wells, read-out: IC50, icilin induced mouse TRPM8 channel activation) was 6 ± 1.1 nM and the IC50 (mouse TRPM8; 100 µM menthol, triplicate wells, read-out: IC50, menthol induced mouse TRPM8 channel activation) was 2 ± 1.2 nM. For the same compound, the IC50 (mouse TRPM8; cold 10°C, one experiment in triplicate wells, read-out: IC50, cold induced mouse TRPM8 channel activation) was 2 ± 1.2 nM, the “block of icilin-induced 45Ca2+ uptake, rat DRG neurons” value [1] was “full inhibition” and the IC50 (rat TRPM8; 1 µM icilin, triplicate wells, read-out: IC50, icilin induced rat TRPM8 channel activation) was 11 ± 1.1 nM. For the same compound, the IC50 (rat TRPM8; 100 µM menthol, triplicate wells, read-out: IC50, menthol induced rat TRPM8 channel activation) was 2 ± 1.3 nM and the IC50 (rat TRPM8; cold 10°C, one experiment in triplicate wells, read-out: IC50, cold induced rat TRPM8 channel activation) was 2 ± 1.2 nM.

For “SDVD GTTYDFAHC (N-terminal SDVD) [peptide, cognate peptide of ACC-049, amino acid residues 917-929 of human TRPM8]”, the “block of icilin-induced 45Ca2+ uptake, human TRPM8 in CHO cells” value (human TRPM8; 1 µM icilin) was “no effects”, the “blockade of cold activation of human TRPM8, single concentration” value (human TRPM8; ACC-049 and control IgG 2.5 µM, peptide 10 µM, cold, Fig. 2) was “no effects” and the “blockade of icilin activation of human TRPM8, single concentration” value (human TRPM8; ACC-049 and control IgG 2.5 µM, peptide 10 µM, icilin, Fig. 2) was “no effects”. For the same compound, the “block of icilin-induced 45Ca2+ uptake, rat DRG neurons” value [1] was “did not affect”, the “effect on noxious cold temperature activation of human TRPA1, single concentration” value (human TRPA1) was “no effects” and the “effect on heat activation of human TRPV1, single concentration” value (human TRPV1) was “no effects”.
